Data taken from patent publication US9833425B2, “Gentisic acid is used to improve systemic hemodynamics, hepatic mitochondrial function and lactate acidemia in patients with septic shock” (priority 2015, dated 2017).
Entries after “also recorded” stand apart in the source; their conditions may differ.

Test system: hepatic mitochondria
Assay: Oxygen consumption rates of hepatic mitochondria harvested after in vivo treatment (Seahorse XF24)
Design: species or system dog
Conditions: treated septic dogs; for coupled respiration (OCR after ADP) of hepatic mitochondria: ADP 4 mM; for maximal (uncoupled) respiration (OCR after FCCP) of hepatic mitochondria: FCCP 4 uM
Protocol: After completion of the in-vivo measurements, we administered sodium pentobarbital (110 mg/kg) to euthanize the animal. In a subset of animals of each group, we immediately harvested a piece of liver and isolated the mitochondria as described by Schnaitman and Greenawalt (23). Briefly, we minced the extracted liver in mitochondrial isolation buffer (MSHE) that includes 70 mM sucrose, 210 mM mannitol, 5 mM HEPES, 1 mM EGTA, and fatty acid free bovine serum albumin (BSA). We then disrupted the tissue using a drill-driven glass/Teflon dounce homogenizer. We centrifuged the homogenate three times, after which we re-suspended the final pellet in a minimal volume of MSHE+BSA and determined protein (mg/ml). We diluted the mitochondrial preparation in cold mitochondrial assay solution (MAS) that contained 70 mM sucrose, 220 mM mannitol, 10 mM KH2PO4, 5 mM MgCl2, 2 mM HEPES, 1 mM EGTA, and BSA for plating directly onto the custom Seahorse 24-well culture dish (˜20 ug mitochondrial protein/50 ul per well; see further below). After centrifugation of the plate and addition of appropriate substrates, we viewed the mitochondria under a microscope to ensure consistent adherence to the well. We then transferred the plate to the XF24 Analyzer for initiation of the protocol as described below (17).
To examine mitochondrial function in this model, we used a novel new technology that is capable of measuring dynamic changes in mitochondrial function, not easily attainable by other technologies (17). The Seahorse® XF24 extracellular flux analyser (Seahorse Bioscience, MA, USA) refines the technology by which mitochondrial oxygen consumption can be measured. This technology uses a piston to reversibly enclose a small volume (7 ul) above the mitochondria that can monitor oxygen uptake in that volume for 2-5 min, then raises the piston, allowing the bulk incubation medium (˜1 ml) to re-equilibrate. The ability to make up to 4 additions during the experiment allows mitochondrial respiration to be measured under various metabolic conditions. This piece of equipment has never been used to measure mitochondrial function in SS.
In this protocol, we sequentially measured mitochondrial function under various metabolic conditions (17). To obtain basal OCR, we first added a substrate to the preparation that contained pyruvate (10 mM) and malate (2 mM). We then added ADP (adenosine-diphosphate; 4 mM) that allows ATP synthase to function, producing an increase in OCR (coupled OCR) that is termed “state3ADP”. When the ATP/ADP ratio approaches equilibrium, pmf rises, after which proton reentry through the synthase stops and respiration slows. We terminated coupled respiration (i.e. state3ADP) by the addition of the ATP synthase inhibitor oligomycin (2.0 uM) in which we achieved “stateoligomycin” where ATP recycling cannot contribute and there is a stable decrease in OCR. We then added the protonophore, FCCP (4 uM; carbonyl cyanide p-trifluoromethoxy-phenylhydrazone). FCCP leads to uncoupled respiration in which we previously titrated the concentration of FCCP to yield a maximal effect. In mitochondria in which ATP synthase activity is a limiting factor, uncoupled respiration may be greater than coupled respiration. […] We finally added rotenone (R; 2 uM) and antimycin A (AA; 2 uM) which are inhibitors of the electron transport chain (ETC) complexes, I and III, respectively. When added to the mitochondrial preparation, these inhibitors produce a marked decline in mitochondrial respiration since the electron transport chain is inhibited.
With each treatment group, we obtained measurements of basal OCR, coupled OCR (i.e. state3ADP), and maximal OCR. In addition, we calculated coupled and uncoupled respiratory control ratios from state3ADP/stateoligomycin and uncoupled respiration/state FCCP/stateoligomycin, respectively. […]

[1] = listed as gentisic, sodium salt

Structure (SMILES) | coupled respiration (OCR after ADP) of hepatic mitochondria | maximal (uncoupled) respiration (OCR after FCCP) of hepatic mitochondria | coupled respiration (OCR after ADP) of hepatic mitochondria [1] | coupled respiration (OCR after ADP) of hepatic mitochondria (sodium salt) | augmented respiratory capacity (uncoupled minus coupled respiration) [1] | basal respiration (basal OCR) of hepatic mitochondria (pyruvate and malate substrate)
O=C(O)c1cc(O)c(O)c(O)c1 [gallic acid, 3,4,5 trihydroxybenzoic acid] | not different from values found in the non-septic control group | restored the reduction in maximal respiration | – | – | – | –
O=C([O-])c1cc(O)ccc1O.[Na+] [GSS, 2,5-dihydroxybenzoic acid sodium salt] | – | increase maximal OCR | significantly greater than the other groups; also recorded: large increase in coupled respiration | greater response to ADP as compared to the other groups | lowest; also recorded: reduction in augmented respiratory capacity | restoring basal respiration to the non-septic control value
